Source: EPA's ToxRefDB 2

Tests used:
[1] = system: rat; conditions: Subchronic oral toxicity in rodents, Gavage/Intubation, dose end: 91 day
[2] = system: rat; conditions: Multigenerational reproductive toxicity study, sprague dawley, Oral, Feed, dose end: 3 generation
[3] = system: dog; conditions: Chronic toxicity, beagle, Oral, Feed, dose end: 12 month
[4] = system: rat; conditions: Prenatal developmental toxicity study, fischer, Oral, Gavage/Intubation, dose end: 15 GD
[5] = system: rat; conditions: Multigenerational reproductive toxicity study, sprague dawley, Oral, Gavage/Intubation, dose end: 2 generation
[6] = system: rat; conditions: Multigenerational reproductive toxicity study, sprague dawley, Oral, Gavage/Intubation, dose end: 2 generation; remark: listed apart in the source
[7] = system: mouse; conditions: Prenatal developmental toxicity study, cd1, Oral, Gavage/Intubation, dose end: 15 GD
[8] = system: rat; conditions: Subchronic oral toxicity in rodents, fischer, Feed, dose end: 13 week
[9] = system: rat; conditions: Multigenerational reproductive toxicity study, sprague dawley, Oral, Feed, dose end: 2 generation
[10] = system: dog; conditions: Subchronic oral toxicity in nonrodent, beagle, Feed, dose end: 13 week
[11] = system: rat; conditions: Combined chronic toxicity/carcinogenicity, fischer, Oral, Feed, dose end: 24 month
[12] = system: mouse; conditions: Carcinogenicity, cd1, Oral, Feed, dose end: 78 week
[13] = system: rat; conditions: Multigenerational reproductive toxicity study, sprague dawley, Oral, Feed, dose end: 2 generation; remark: listed apart in the source
[14] = group: maternal, reproductive / reproductive performance / estrous cycle / abnormal + reproductive / reproductive performance / estrous cycle / absent …
[15] = group: systemic, systemic / clinical chemistry / albumin / albumin + systemic / clinical chemistry / cholesterol / cholesterol + systemic / clinical …
[16] = group: systemic, systemic / clinical chemistry / sodium / sodium + systemic / pathology microscopic / mammary gland / hyperplastic alveolar nodule + systemic…
[17] = group: offspring, systemic / in life observation / body weight / offspring (pup) weight
[18] = group: offspring, systemic / in life observation / body weight / offspring (pup) weight + developmental / offspring survival late / viability index / …
[19] = group: parental, systemic / in life observation / body weight / body weight
[20] = group: parental, systemic / in life observation / body weight / body weight + systemic / in life observation / food consumption / food consumption
[21] = group: cholinesterase, cholinesterase / cholinesterase / cholinesterase / plasma cholinesterase (che)
[22] = group: systemic, systemic / clinical chemistry / calcium / calcium + systemic / clinical chemistry / potassium / potassium + systemic / clinical chemistry / …
[23] = group: developmental, systemic / in life observation / body weight / fetal weight
[24] = group: maternal, reproductive / reproductive performance / resorptions / resorptions + systemic / in life observation / body weight / body weight + systemic…
[25] = group: maternal, systemic / in life observation / clinical signs / hunched posture + systemic / in life observation / clinical signs / lacrimation + systemic…
[26] = group: offspring, developmental / offspring survival late / viability index / viability index + systemic / in life observation / body weight / offspring (pup…
[27] = group: offspring, systemic / in life observation / body weight / offspring (pup) weight + systemic / in life observation / body weight / offspring (pup) …
[28] = group: parental, systemic / in life observation / body weight / body weight gain + systemic / in life observation / clinical signs / [other] + systemic / in …
[29] = group: parental, systemic / in life observation / clinical signs / reduced activity + systemic / in life observation / body weight / body weight gain + …
[30] = group: reproductive, reproductive / reproductive performance / estrous cycle / length + reproductive / reproductive performance / pregnancy index / pregnancy …
[31] = group: parental, systemic / in life observation / clinical signs / reduced activity
[32] = group: parental, systemic / in life observation / clinical signs / reduced activity + systemic / organ weight / adrenal gland / relative to body weight + …
[33] = group: reproductive, reproductive / offspring survival early / litter size / litter size + reproductive / offspring survival early / live fetuses / live fetuses
[34] = group: reproductive, reproductive / reproductive performance / gestational length / gestational length + reproductive / reproductive performance / pregnancy …
[35] = group: developmental, developmental / developmental malformation / general / [other] + systemic / in life observation / body weight / fetal weight
[36] = group: systemic, systemic / hematology / platelet / platelet + systemic / organ weight / adrenal gland / absolute + systemic / organ weight / testes / …
[37] = group: systemic, systemic / pathology microscopic / adrenal gland / hypertrophy + systemic / pathology microscopic / adrenal gland / necrosis + systemic / …
[38] = group: cholinesterase, cholinesterase / cholinesterase / cholinesterase / erythrocyte cholinesterase (che) + cholinesterase / cholinesterase / cholinesterase / …
[39] = group: offspring, developmental / offspring survival late / lactation index / lactation index + systemic / in life observation / body weight / offspring (pup…
[40] = group: parental, systemic / pathology microscopic / adrenal gland / [other] + systemic / pathology microscopic / adrenal gland / vacuolization + systemic / …
[41] = group: cholinesterase, cholinesterase / cholinesterase / cholinesterase / plasma cholinesterase (che) + cholinesterase / cholinesterase / cholinesterase / …
[42] = group: systemic, systemic / clinical chemistry / albumin / albumin + systemic / clinical chemistry / alkaline phosphatase (alp/alk) / alkaline phosphatase (…
[43] = group: cholinesterase, cholinesterase / cholinesterase / cholinesterase / erythrocyte cholinesterase (che)
[44] = group: systemic, systemic / pathology microscopic / pituitary gland / adenoma + systemic / pathology microscopic / uterus / polyp stromal + systemic / …
[45] = group: cholinesterase, cholinesterase / cholinesterase / cholinesterase / brain cholinesterase (che) + cholinesterase / cholinesterase / cholinesterase / …
[46] = group: systemic, systemic / urinalysis / protein / protein
[47] = group: offspring, systemic / organ weight / spleen / absolute + systemic / organ weight / spleen / relative to body weight
[48] = group: parental, systemic / pathology microscopic / adrenal gland / vacuolization cytoplasmic + systemic / organ weight / adrenal gland / absolute + systemic…

## CS(=O)(=O)O.Cc1cc(CCN2CCN(c3nsc4ccccc34)CC2)cc2c1NC(=O)CC2(C)C
[1]; [14]
  LEL: 10 mg/kg/day
  LOAEL: > 60 mg/kg/day
  NEL: < 10 mg/kg/day
  NOAEL: ≥ 60 mg/kg/day
[1]; [15]
  LOAEL: > 60 mg/kg/day
  NOAEL: ≥ 60 mg/kg/day
[1]; [16]
  LEL: 10 mg/kg/day
  NEL: < 10 mg/kg/day

## CNC(=O)Oc1cccc2c1OC(C)(C)C2 [Carbofuran]
[2]; [17]
  NEL: 1 mg/kg/day
  NOAEL: 1 mg/kg/day
[2]; [18]
  LEL: 5 mg/kg/day
  LOAEL: 5 mg/kg/day
[2]; [19]
  LEL: 1 mg/kg/day
  NEL: < 1 mg/kg/day
[2]; [20]
  LOAEL: 5 mg/kg/day
  NOAEL: 1 mg/kg/day
[3]; [21]
  LEL: 0.5 mg/kg/day
  LOAEL: 0.5 mg/kg/day
  NEL: 0.25 mg/kg/day
  NOAEL: 0.25 mg/kg/day
[3]; [22]
  LEL: 12.5 mg/kg/day
  LOAEL: > 12.5 mg/kg/day
  NEL: 0.5 mg/kg/day
  NOAEL: ≥ 12.5 mg/kg/day

## CN(C)CCCN1c2ccccc2Sc2ccc(Cl)cc21.Cl [Chlorpromazine hydrochloride]
[4]; [23]
  LEL: 5 mg/kg/day
  LOAEL: > 45 mg/kg/day
  NEL: < 5 mg/kg/day
  NOAEL: ≥ 45 mg/kg/day
[4]; [24]
  LOAEL: > 45 mg/kg/day
  NOAEL: ≥ 45 mg/kg/day
[4]; [25]
  LEL: 5 mg/kg/day
  NEL: < 5 mg/kg/day
[5]; [26]
  LOAEL: > 100 mg/kg/day
  NOAEL: ≥ 100 mg/kg/day
[5]; [27]
  LEL: 12.5 mg/kg/day
  NEL: < 12.5 mg/kg/day
[5]; [28]
  LOAEL: > 100 mg/kg/day
  NOAEL: ≥ 100 mg/kg/day
[5]; [29]
  LEL: 12.5 mg/kg/day
  NEL: < 12.5 mg/kg/day
[5]; group: reproductive, reproductive / reproductive performance / estrous cycle / length
  LEL: 25 mg/kg/day
[5]; [30]
  LOAEL: > 100 mg/kg/day
  NEL: 12.5 mg/kg/day
  NOAEL: ≥ 100 mg/kg/day
[6]; [26]
  LOAEL: > 100 mg/kg/day
  NOAEL: ≥ 100 mg/kg/day
[6]; [17]
  LEL: 12.5 mg/kg/day
  NEL: < 12.5 mg/kg/day
[6]; [31]
  LEL: 12.5 mg/kg/day
  NEL: < 12.5 mg/kg/day
[6]; [32]
  LOAEL: > 100 mg/kg/day
  NOAEL: ≥ 100 mg/kg/day
[6]; [33]
  LEL: 12.5 mg/kg/day
  NEL: < 12.5 mg/kg/day
[6]; [34]
  LOAEL: > 100 mg/kg/day
  NOAEL: ≥ 100 mg/kg/day
[7]; [35]
  LOAEL: > 30 mg/kg/day
  NEL: 5 mg/kg/day
  NOAEL: ≥ 30 mg/kg/day
[7]; [23]
  LEL: 15 mg/kg/day
[7]; [24]
  LOAEL: > 30 mg/kg/day
  NEL: 5 mg/kg/day
  NOAEL: ≥ 30 mg/kg/day
[7]; group: maternal, systemic / in life observation / body weight / body weight + systemic / in life observation / body weight / body weight gain
  LEL: 15 mg/kg/day

## COP(=S)(OC)Oc1nc(Cl)c(Cl)cc1Cl [Chlorpyrifos-methyl]
[8]; [21]
  LEL: 0.1 mg/kg/day
  LOAEL: 0.1 mg/kg/day
  NEL: < 0.1 mg/kg/day
  NOAEL: < 0.1 mg/kg/day
[8]; [36]
  LEL: 0.1 mg/kg/day
  NEL: < 0.1 mg/kg/day
[8]; [37]
  LOAEL: 10 mg/kg/day
  NOAEL: 1 mg/kg/day
[9]; [38]
  LEL: 1 mg/kg/day
  LOAEL: 1 mg/kg/day
  NEL: 0.1 mg/kg/day
  NOAEL: 0.1 mg/kg/day
[9]; [39]
  LEL: 5 mg/kg/day
  LOAEL: 5 mg/kg/day
  NEL: 1 mg/kg/day
  NOAEL: 1 mg/kg/day
[9]; group: parental, systemic / pathology microscopic / adrenal gland / [other] + systemic / pathology microscopic / adrenal gland / vacuolization
  NEL: 1 mg/kg/day
[9]; [40]
  LEL: 5 mg/kg/day
  LOAEL: > 5 mg/kg/day
  NOAEL: ≥ 5 mg/kg/day
[10]; [21]
  LEL: 0.1 mg/kg/day
  NEL: < 0.1 mg/kg/day
[10]; [41]
  LOAEL: 10 mg/kg/day
  NOAEL: 0.1 mg/kg/day
[10]; [42]
  LEL: 50 mg/kg/day
  LOAEL: 50 mg/kg/day
  NEL: 10 mg/kg/day
  NOAEL: 10 mg/kg/day
[11]; [43]
  LEL: 0.1 mg/kg/day
[11]; [38]
  LOAEL: 1 mg/kg/day
  NEL: 0.05 mg/kg/day
  NOAEL: 0.1 mg/kg/day
[11]; group: systemic, systemic / pathology microscopic / pituitary gland / adenoma
  LEL: 0.1 mg/kg/day
[11]; group: systemic, systemic / pathology microscopic / pituitary gland / adenoma + systemic / pathology microscopic / adrenal gland / vacuolization
  LOAEL: 1 mg/kg/day
[11]; [44]
  NEL: 0.05 mg/kg/day
  NOAEL: 0.1 mg/kg/day
[12]; [45]
  LEL: 3.94 mg/kg/day
  LOAEL: 3.94 mg/kg/day
  NEL: 0.403 mg/kg/day
  NOAEL: 0.403 mg/kg/day
[12]; group: systemic, systemic / pathology microscopic / liver / fatty change
  LOAEL: 41.5 mg/kg/day
[12]; group: systemic, systemic / pathology microscopic / liver / fatty change + systemic / clinical chemistry / alkaline phosphatase (alp/alk) / alkaline …
  NOAEL: 3.94 mg/kg/day
[12]; [46]
  LEL: 0.0816 mg/kg/day
  NEL: < 0.0816 mg/kg/day
[13]; [43]
  LEL: 1 mg/kg/day
  LOAEL: 1 mg/kg/day
  NEL: < 1 mg/kg/day
  NOAEL: < 1 mg/kg/day
[13]; [47]
  LEL: 10 mg/kg/day
  LOAEL: > 10 mg/kg/day
  NEL: 3 mg/kg/day
  NOAEL: ≥ 10 mg/kg/day
[13]; group: parental, systemic / pathology microscopic / adrenal gland / vacuolization cytoplasmic
  LOAEL: 3 mg/kg/day
[13]; [48]
  LEL: 3 mg/kg/day
  NEL: 1 mg/kg/day
  NOAEL: 1 mg/kg/day
